For 28 molecules, IC50 results are on record in patent US10112950B2, “Substituted imidazo[1,2-a]pyrazines as LSD1 inhibitors” (Incyte Corporation, priority 2014, dated 2018).

As usually defined, the IC50 is the concentration that inhibits the measured activity by half. Read a high IC50 as a need for much substance.

In this experiment the target is LSD-1 enzyme (Homo sapiens (Human), UniProt O60341). Briefly: LANCE LSD1/KDM1A demethylase assay (LSD1 histone demethylase biochemical assay). The conditions noted are these: 1 nM LSD-1 enzyme, 1 hour preincubation at 25° C., 0.4 μM Biotin-labeled Histone H3 peptide substrate. How it is done: LSD1 Histone Demethylase Biochemical Assay
LANCE LSD1/KDM1A demethylase assay-10 μL of 1 nM LSD-1 enzyme (ENZO BML-SE544-0050) in the assay buffer (50 mM Tris, pH 7.5, 0.01% Tween-20, 25 mM NaCl, 5 mM DTT) were preincubated for 1 hour at 25° C. with 0.8 μL compound/DMSO dotted in black 384 well polystyrene plates. […] Reactions were stopped by addition of 10 μL 1× LANCE Detection Buffer (PerkinElmer CR97-100) supplemented with 1.5 nM Eu-anti-unmodified H3K4 Antibody (PerkinElmer TRF0404), and 225 nM LANCE Ultra Streptavidin (PerkinElmer TRF102) along with 0.9 mM Tranylcypromine-HCl (Millipore 616431). After stopping the reactions plates were incubated for 30 minutes and read on a PHERAstar FS plate reader (BMG Labtech).
Background: TR-FRET usually uses a lanthanide donor and a delayed reading to cut background.

On to `CCn1c(=O)oc2cc(-c3c(-c4ccc(C#N)cc4)nc(N4CCC(N(C)C)CC4)c4nccn34)cnc21` [Example 105, 4-[8-[4-(dimethylamino)piperidin-1-yl]-5-(3-ethyl-2-oxo-2,3-dihydro[1,3]oxazolo[4,5-b]pyridin-6-yl)imidazo[1,2-a]pyrazin-6-yl]benzonitrile], for which the IC50 was at most 50 nM.
Turning to `CN1C(=O)Cc2cc(-c3c(-c4ccc(C#N)cc4)nc(N4CCC(N(C)C)CC4)c4nccn34)cnc21` [Example 111, 4-[8-[4-(dimethylamino)piperidin-1-yl]-5-(1-methyl-2-oxo-2,3-dihydro-1H-pyrrolo[2,3-b]pyridin-5-yl)imidazo[1,2-a]pyrazin-6-yl]benzonitrile], the IC50 is at most 50 nM.
`Cc1ccc(-c2c(-c3ccc(C#N)cc3)nc(OC[C@@H]3CCCNC3)c3nccn23)cc1` [Example 9, 4-{5-(4-methylphenyl)-8-[(3R)-piperidin-3-ylmethoxy]imidazo[1,2-a]pyrazin-6-yl}benzonitrile]: the IC50 was at most 50 nM.
`Cc1ccc(-c2c(-c3ccc(C#N)cc3)nc(OC[C@@H]3CCN(C)C3)c3nc(CN(C)C)cn23)cc1` [Example 46, 4-(2-[(dimethylamino)methyl]-5-(4-methylphenyl)-8-{[(3R)-1-methylpyrrolidin-3-yl]methoxy}imidazo[1,2-a]pyrazin-6-yl)benzonitrile]: the 50% inhibitory concentration (IC50) was at most 50 nM.
`CN(C)C1CCN(c2nc(-c3ccc(C#N)cc3)c(-c3cnc4c(ccn4C)c3)n3ccnc23)CC1` [Example 112, 4-[8-[4-(dimethylamino)piperidin-1-yl]-5-(1-methyl-1H-pyrrolo[2,3-b]pyridin-5-yl)imidazo[1,2-a]pyrazin-6-yl]benzonitrile] returned an IC50 of at most 50 nM.
The same measure for `Cc1ccc(-c2c(-c3ccc(C#N)cc3)nc(OC[C@@H]3CCCN(C)C3)c3nccn23)cc1CO` [Example 70, 4-(5-[3-(hydroxymethyl)-4-methylphenyl]-8-{[(3R)-1-methylpiperidin-3-yl]methoxy}imidazo[1,2-a]pyrazin-6-yl)benzonitrile]: at most 50 nM.
The same measure for `Cc1ccc(-c2c(-c3ccc(C#N)cc3)nc(N3CCCN(C)CC3)c3nccn23)cc1` [Example 18, 4-[8-(4-methyl-1,4-diazepan-1-yl)-5-(4-methylphenyl)imidazo[1,2-a]pyrazin-6-yl]benzonitrile]: at most 50 nM.
Then `CN(C)C1CCN(c2nc(-c3ccc(C#N)cc3)c(-c3ccc4c(c3)CC(O)C4)n3ccnc23)CC1` (racemic) [Example 93, 4-[8-[4-(dimethylamino)piperidin-1-yl]-5-(2-hydroxy-2,3-dihydro-1H-inden-5-yl)imidazo[1,2-a]pyrazin-6-yl]benzonitrile], with at most 50 nM.
The molecule `Cc1cc(-c2c(-c3ccc(C#N)cc3)nc(N3CCC(N(C)C)CC3)c3nccn23)cnc1C` [Example 92, 4-[8-[4-(dimethylamino)piperidin-1-yl]-5-(5,6-dimethylpyridin-3-yl)imidazo[1,2-a]pyrazin-6-yl]benzonitrile] yielded an IC50 of at most 50 nM.
The same measure for `COC(=O)N(C)Cc1ccc(-c2c(-c3ccc(C#N)cc3)nc(OC[C@@H]3CCCN(C)C3)c3nccn23)cc1F` [Example 85, methyl [4-(6-(4-cyanophenyl)-8-{[(3R)-1-methylpiperidin-3-yl]methoxy}imidazo[1,2-a]pyrazin-5-yl)-2-fluorobenzyl]methylcarbamate]: at most 50 nM; for `CN(C)C1CCN(c2nc(-c3ccc(C#N)cc3)c(-c3cc4oc(=O)n(C)c4cc3F)n3ccnc23)CC1` [Example 62, 4-[8-[4-(dimethylamino)piperidin-1-yl]-5-(5-fluoro-3-methyl-2-oxo-2,3-dihydro-1,3-benzoxazol-6-yl)imidazo[1,2-a]pyrazin-6-yl]benzonitrile]: at most 50 nM; for `CN(C)C1CCN(c2nc(-c3ccc(C#N)cc3)c(-c3cnc4c(c3)cc(CO)n4C)n3ccnc23)CC1` [Example 103, 4-{8-[4-(dimethylamino)piperidin-1-yl]-5-[2-(hydroxymethyl)-1-methyl-1H-pyrrolo[2,3-b]pyridin-5-yl]imidazo[1,2-a]pyrazin-6-yl}benzonitrile]: at most 50 nM.
The molecule `Cc1ccc(-c2c(-c3ccc(C#N)cc3)nc(CCC3CCNC3)c3nccn23)cc1` (stereo not shown) [Example 2, 4-[5-(4-methylphenyl)-8-(2-pyrrolidin-3-ylethyl)imidazo[1,2-a]pyrazin-6-yl]benzonitrile] gave an IC50 of at most 50 nM.
`Cc1ccc(-c2c(-c3ccc(C#N)cc3)nc(OC[C@@H]3CCNC3)c3nc(C(=O)NC4CC4)cn23)cc1` [Example 39, 6-(4-cyanophenyl)-N-cyclopropyl-5-(4-methylphenyl)-8-[(3R)-pyrrolidin-3-ylmethoxy]imidazol[1,2-a]pyrazine-2-carboxamide] gave an IC50 of at most 50 nM.
`Cc1ccc(-c2c(-c3ccc(C#N)cc3)nc(OC[C@@H]3CCNC3)c3nc(CN(C)C)cn23)cc1` [Example 42, 4-{2-[(dimethylamino)methyl]-5-(4-methylphenyl)-8-[(3R)-pyrrolidin-3-ylmethoxy]imidazol[1,2-a]pyrazin-6-yl}benzonitrile] yielded an IC50 of at most 50 nM.
As to `Cc1nc2cc(-c3c(-c4ccc(C#N)cc4)nc(N4CCC(N(C)C)CC4)c4nccn34)ccc2n1C` [Example 115, 4-[8-[4-(dimethylamino)piperidin-1-yl]-5-(1,2-dimethyl-1H-benzimidazol-5-yl)imidazo[1,2-a]pyrazin-6-yl]benzonitrile], the IC50 was at most 50 nM.
The same measure for `CN(C)C1CCN(c2nc(-c3ccc(C#N)cc3)c(-c3ccc4c(c3)c(CO)nn4C)n3ccnc23)CC1` [Example 110, 4-{8-[4-(dimethylamino)piperidin-1-yl]-5-[3-(hydroxymethyl)-1-methyl-1H-indazol-5-yl]imidazo[1,2-a]pyrazin-6-yl}benzonitrile]: at most 50 nM; for `Cc1ccc(-c2c(-c3ccc(C#N)cc3)nc(N3CCC4(CCNC4)C3)c3nccn23)cc1` (stereo not shown) [Example 19, 4-[8-(2,7-diazaspiro[4.4]non-2-yl)-5-(4-methylphenyl)imidazo[1,2-a]pyrazin-6-yl]benzonitrile]: at most 50 nM.
In turn, `Cc1ccc(-c2c(-c3ccc(C#N)cc3)nc(OC[C@@H]3CCNC3)c3nc(CN4CCC4)cn23)cc1` [Example 43, 4-{2-(azetidin-1-ylmethyl)-5-(4-methylphenyl)-8-[(3R)-pyrrolidin-3-ylmethoxy]imidazol[1,2-a]pyrazin-6-yl}benzonitrile] had an IC50 of at most 50 nM.
With `Cc1ccc(-c2c(-c3ccc(C#N)cc3)nc(OC[C@@H]3CCN(C)C3)c3nccn23)cc1` [Example 11, 4-(5-(4-methylphenyl)-8-{[(3R)-1-methylpyrrolidin-3-yl]methoxy}imidazo[1,2-a]pyrazin-6-yl)benzonitrile], the IC50 is at most 50 nM.
`CN1CCC[C@@H](COc2nc(-c3ccc(C#N)cc3)c(-c3ccc4c(c3)CCC4O)n3ccnc23)C1` (stereo partly drawn) [Example 80, 4-(5-(1-hydroxy-2,3-dihydro-1H-inden-5-yl)-8-{[(3R)-1-methylpiperidin-3-yl]methoxy}imidazo[1,2-a]pyrazin-6-yl)benzonitrile] had an IC50 of at most 50 nM.
`CN(C)C1CCN(c2nc(-c3ccc(C#N)cc3)c(-c3ccc4c(c3)c(N)nn4C)n3ccnc23)CC1` [Example 68, 4-{5-(3-amino-1-methyl-1H-indazol-5-yl)-8-[4-(dimethylamino)piperidin-1-yl]imidazo[1,2-a]pyrazin-6-yl}benzonitrile] displayed an IC50 of at most 50 nM.
Turning to `C[C@@H](O)c1nc2cc(-c3c(-c4ccc(C#N)cc4)nc(N4CCC(N(C)C)CC4)c4nccn34)ccc2n1C` [Example 113, 4-(8-[4-(dimethylamino)piperidin-1-yl]-5-{2-[(1R)-1-hydroxyethyl]-1-methyl-1H-benzimidazol-5-yl}imidazo[1,2-a]pyrazin-6-yl)benzonitrile], the IC50 was at most 50 nM.
Consider `CN1C(=O)CCc2cc(-c3c(-c4ccc(C#N)cc4)nc(N4CCC(N(C)C)CC4)c4nccn34)ccc21` [Example 102, 4-[8-[4-(dimethylamino)piperidin-1-yl]-5-(1-methyl-2-oxo-1,2,3,4-tetrahydroquinolin-6-yl)imidazo[1,2-a]pyrazin-6-yl]benzonitrile], for which the IC50 is at most 50 nM.
Consider `Cc1ccc(-c2c(-c3ccc(C#N)cc3)nc(N3CCC4(CC3)CNC4)c3nccn23)cc1` [Example 20, 4-[8-(2,7-diazaspiro[3.5]non-7-yl)-5-(4-methylphenyl)imidazo[1,2-a]pyrazin-6-yl]benzonitrile], for which the IC50 was at most 50 nM.
`Cc1cc(-c2c(-c3ccc(C#N)cc3)nc(OC[C@@H]3CCCN(C)C3)c3nccn23)ccc1CO` [Example 72, 4-(5-[4-(hydroxymethyl)-3-methylphenyl]-8-{[(3R)-1-methylpiperidin-3-yl]methoxy}imidazo[1,2-a]pyrazin-6-yl)benzonitrile] registered an IC50 of at most 50 nM.
`Cc1ccc(-c2c(-c3ccc(C#N)cc3)nc(OC[C@@H]3CCNC3)c3nc(C(=O)NC4CN(C)C4)cn23)cc1` [Example 40, 6-(4-cyanophenyl)-N-(1-methylazetidin-3-yl)-5-(4-methylphenyl)-8-[(3R)-pyrrolidin-3-ylmethoxy]imidazol[1,2-a]pyrazine-2-carboxamide]: the IC50 is at most 50 nM.
`Cc1ccc(-c2c(-c3ccc(C#N)cc3)nc(CN3CC[C@H](N(C)C)C3)c3nccn23)cc1` [Example 4, 4-[8-{[(3S)-3-(dimethylamino)pyrrolidin-1-yl]methyl}-5-(4-methylphenyl)imidazo[1,2-a]pyrazin-6-yl]benzonitrile]: the half-inhibitory concentration (IC50) was at most 50 nM.
